{
  "source": "the supplement of paper PMC10307832",
  "assay_in_all_cases": "relative viability (nuclei count vs DMSO), 5 days (fraction); higher = more cells survive",
  "key": {"[1]": {"compound": "CC(C)(C)c1nc(-c2cccc(NS(=O)(=O)c3c(F)cccc3F)c2F)c(-c2ccnc(N)n2)s1 [Dabrafenib] + Cc1nc(NC(=O)N2CCC[C@H]2C(N)=O)sc1-c1ccnc(C(C)(C)C(F)(F)F)c1 [Alpelisib] (partner 2 µM)", "how_it_was_run": "(§1)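 The day after seeding in 1536-well plates, lung cancer cell lines were treated by pin tool with a single drug, or with a fixed anchor-drug dose together with five library-drug doses (not always all listed) in √10 steps. After 5 days, a combined fix-and-stain solution (final 0.05% Triton X-100, 1% formaldehyde, 1 ug/ml Hoechst) was added. Nuclei counted on 4× images gave relative viability as treated counts over vehicle counts, reported as the median of duplicate plates.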"}, "[2]": {"compound": "NC(=O)c1ccc(N(C(N)=O)c2c(F)cccc2F)nc1-c1ccc(F)cc1F [VX-702] + C[C@]1(O)C[C@@H](c2nc(-c3ccc4ccc(-c5ccccc5)nc4c3)c3c(N)nccn32)C1 [Linsitinib] (partner 1 µM)", "how_it_was_run": "as §1"}, "[3]": {"compound": "NC(=O)c1ccc(N(C(N)=O)c2c(F)cccc2F)nc1-c1ccc(F)cc1F [VX-702] + CCNC(=O)c1noc(-c2cc(C(C)C)c(O)cc2O)c1-c1ccc(CN2CCOCC2)cc1 [Luminespib] (partner 0.01 µM)", "how_it_was_run": "as §1"}, "[4]": {"compound": "NC(=O)c1ccc(N(C(N)=O)c2c(F)cccc2F)nc1-c1ccc(F)cc1F [VX-702] + CC(=O)Nc1cccc(-n2c(=O)n(C3CC3)c(=O)c3c(Nc4ccc(I)cc4F)n(C)c(=O)c(C)c32)c1 [Trametinib] (partner 0.02 µM)", "how_it_was_run": "as §1"}},
  "data": [
    {"cell line": "HARA", "values": [
      {"measurement": "relative viability", "setting": "[1]; first compound 0.003 µM", "result": 0.669},
      {"measurement": "relative viability", "setting": "[1]; first compound 0.009487 µM", "result": 0.89},
      {"measurement": "relative viability", "setting": "[1]; first compound 0.03 µM", "result": 0.646},
      {"measurement": "relative viability", "setting": "[1]; first compound 0.09487 µM", "result": 0.732},
      {"measurement": "relative viability", "setting": "[1]; first compound 0.3 µM", "result": 1.09},
      {"measurement": "relative viability", "setting": "[2]; first compound 0.02 µM", "result": 1.02},
      {"measurement": "relative viability", "setting": "[2]; first compound 0.2 µM", "result": 0.877},
      {"measurement": "relative viability", "setting": "[2]; first compound 0.6325 µM", "result": 0.927},
      {"measurement": "relative viability", "setting": "[2]; first compound 2 µM", "result": 0.797},
      {"measurement": "relative viability", "setting": "[3]; first compound 0.02 µM", "result": 0.743},
      {"measurement": "relative viability", "setting": "[3]; first compound 0.2 µM", "result": 0.75},
      {"measurement": "relative viability", "setting": "[3]; first compound 0.6325 µM", "result": 0.58},
      {"measurement": "relative viability", "setting": "[3]; first compound 2 µM", "result": 0.947},
      {"measurement": "relative viability", "setting": "[4]; first compound 0.02 µM", "result": 0.818},
      {"measurement": "relative viability", "setting": "[4]; first compound 0.6325 µM", "result": 0.776},
      {"measurement": "relative viability", "setting": "[4]; first compound 2 µM", "result": 0.63}
    ]},
    {"cell line": "NCI-H1395", "values": [
      {"measurement": "relative viability", "setting": "[1]; first compound 0.009487 µM", "result": 0.914},
      {"measurement": "relative viability", "setting": "[1]; first compound 0.03 µM", "result": 0.894},
      {"measurement": "relative viability", "setting": "[1]; first compound 0.09487 µM", "result": 0.944},
      {"measurement": "relative viability", "setting": "[1]; first compound 0.3 µM", "result": 0.878},
      {"measurement": "relative viability", "setting": "[2]; first compound 0.02 µM", "result": 0.965},
      {"measurement": "relative viability", "setting": "[2]; first compound 0.2 µM", "result": 1.28},
      {"measurement": "relative viability", "setting": "[2]; first compound 0.6325 µM", "result": 0.976},
      {"measurement": "relative viability", "setting": "[2]; first compound 2 µM", "result": 1.47},
      {"measurement": "relative viability", "setting": "[3]; first compound 0.02 µM", "result": 0.634},
      {"measurement": "relative viability", "setting": "[3]; first compound 0.2 µM", "result": 0.592},
      {"measurement": "relative viability", "setting": "[3]; first compound 0.6325 µM", "result": 0.892},
      {"measurement": "relative viability", "setting": "[3]; first compound 2 µM", "result": 0.712},
      {"measurement": "relative viability", "setting": "[4]; first compound 0.02 µM", "result": 1.06},
      {"measurement": "relative viability", "setting": "[4]; first compound 0.2 µM", "result": 1.11},
      {"measurement": "relative viability", "setting": "[4]; first compound 0.6325 µM", "result": 1.09},
      {"measurement": "relative viability", "setting": "[4]; first compound 2 µM", "result": 1.24}
    ]},
    {"cell line": "SK-MES-1", "values": [
      {"measurement": "relative viability", "setting": "[1]; first compound 0.003 µM", "result": 0.91},
      {"measurement": "relative viability", "setting": "[1]; first compound 0.009487 µM", "result": 0.828},
      {"measurement": "relative viability", "setting": "[1]; first compound 0.03 µM", "result": 0.933},
      {"measurement": "relative viability", "setting": "[1]; first compound 0.09487 µM", "result": 0.683},
      {"measurement": "relative viability", "setting": "[1]; first compound 0.3 µM", "result": 0.611},
      {"measurement": "relative viability", "setting": "[2]; first compound 0.02 µM", "result": 1.06},
      {"measurement": "relative viability", "setting": "[2]; first compound 0.2 µM", "result": 0.997},
      {"measurement": "relative viability", "setting": "[2]; first compound 0.6325 µM", "result": 1.04},
      {"measurement": "relative viability", "setting": "[2]; first compound 2 µM", "result": 1.1},
      {"measurement": "relative viability", "setting": "[3]; first compound 0.02 µM", "result": 0.839},
      {"measurement": "relative viability", "setting": "[3]; first compound 0.2 µM", "result": 0.711},
      {"measurement": "relative viability", "setting": "[3]; first compound 0.6325 µM", "result": 0.673},
      {"measurement": "relative viability", "setting": "[3]; first compound 2 µM", "result": 0.822},
      {"measurement": "relative viability", "setting": "[4]; first compound 0.02 µM", "result": 0.546},
      {"measurement": "relative viability", "setting": "[4]; first compound 0.2 µM", "result": 0.52},
      {"measurement": "relative viability", "setting": "[4]; first compound 0.6325 µM", "result": 0.481},
      {"measurement": "relative viability", "setting": "[4]; first compound 2 µM", "result": 0.523}
    ]}
  ]
}
